Patent US9050344B2, “Therapeutic compounds” (Gilead Sciences, Inc., priority 2013, dated 2015)

Tests used:
HIV-IIIb = assay: Test A: Antiviral Assay in MT4 Cells; type: cell-based, HIV-1; conditions: Human immunodeficiency virus 1, IIIB, MT4, 120 h, read-out: % inhibition at 3 μM
Description: Test A: Antiviral Assay in MT4 Cells
For the antiviral assay, 40 μL of 1× test concentration of 3-fold serially diluted compound in culture medium with 10% FBS was added to each well of a 384-well plate (10 concentrations) in quadruplicate. MT-4 cells were next mixed with HIV-IIIb at an m.o.i of 0.003 for 1 hour, after which time 35 μL of virus/cell mixture (2000 cells) was immediately added to each well containing 40 μL of diluted compound. The plates were then incubated at 37° C. for 5 days. After 5 days of incubation, 25 μl of 2× concentrated CellTiter-Glo™ Reagent (catalog #G7571, Promega Biosciences, Inc., Madison, Wis.) was added to each well containing MT-4 cells. Cell lysis was carried out by incubating at room temperature for 10 min and then chemiluminescence was read.

[1] = Test B: Cytotoxicity Assay (protocol of Test A, uninfected cells); type: cell-based; conditions: human, uninfected MT-4 cells, CellTiter-Glo
Description: Test B: Cytotoxicity Assay Compound cytotoxicity and the corresponding CC50 values was determined using the same protocol as described in the antiviral assay (Test A) except that uninfected cells were used.

Compound: NC(=O)c1cc(-c2cc(N)cnc2[C@H](Cc2cc(F)cc(F)c2)NC(=O)Cn2nc(C(F)(F)F)c3c2C(F)(F)[C@@H]2C[C@H]32)ccc1F [Compound 31, 5-(5-amino-2-((S)-1-(2-((3bS,4aR)-5,5-difluoro-3-(trifluoromethyl)-3b,4,4a,5-tetrahydro-1H-cyclopropa[3,4]cyclopenta[1,2-c]pyrazol-1-yl)acetamido)-2-(3,5-difluorophenyl)ethyl)pyridin-3-yl)-2-fluorobenzamide]
- inhibition at 3 µM (HIV-IIIb): 96%
- CC50 at 5 days [1]: 19.5 µM

Compound: Cn1nc(NS(C)(=O)=O)c2c(Cl)ccc(-c3cc(N)c(Cl)nc3[C@H](Cc3cc(F)cc(F)c3)NC(=O)Cn3nc(C(F)F)c4c3C(F)(F)[C@@H]3C[C@H]43)c21 [Compound 53B, N—((S)-1-(5-amino-6-chloro-3-(4-chloro-1-methyl-3-(methylsulfonamido)-1H-indazol-7-yl)pyridin-2-yl)-2-(3,5-difluorophenyl)ethyl)-2-((3bS,4aR)-3-(difluoromethyl)-5,5-difluoro-3b,4,4a,5-tetrahydro-1H-cyclopropa[3,4]cyclopenta[1,2-c]pyrazol-1-yl)acetamide]
- inhibition at 3 µM (HIV-IIIb): 91%
- CC50 at 5 days [1]: 15 µM

Compound: Cn1nc(NS(C)(=O)=O)c2cccc(-c3ccc(N4CC(C)(O)C4)nc3[C@H](Cc3cc(F)cc(F)c3)NC(=O)Cn3nc(C(F)F)c4c3C(F)(F)[C@@H]3C[C@H]43)c21 [Compound 42K, 2-((3bS,4aR)-3-(difluoromethyl)-5,5-difluoro-3b,4,4a,5-tetrahydro-1H-cyclopropa[3,4]cyclopenta[1,2-c]pyrazol-1-yl)-N—((S)-2-(3,5-difluorophenyl)-1-(6-(3-hydroxy-3-methylazetidin-1-yl)-3-(1-methyl-3-(methylsulfonamido)-1H-indazol-7-yl)pyridin-2-yl)ethyl)acetamide]
- inhibition at 3 µM (HIV-IIIb): 92%
- CC50 at 5 days [1]: 18.9 µM

Compound: Cn1nc(NS(C)(=O)=O)c2c(Cl)ccc(-c3ccc(NCCO)nc3[C@H](Cc3cc(F)cc(F)c3)NC(=O)Cn3nc(C(F)(F)F)c4c3C(F)(F)[C@@H]3C[C@H]43)c21 [Compound 56]
- inhibition at 3 µM (HIV-IIIb): 95%
- CC50 at 5 days [1]: 24.3 µM

Compound: Cn1nc(NS(C)(=O)=O)c2cccc(-c3cc(N)cnc3[C@H](Cc3cc(F)cc(F)c3)NC(=O)Cn3nc(C(F)(F)F)c4c3C(F)(F)[C@@H]3C[C@H]43)c21 [Compound 35, N—((S)-1-(5-amino-3-(1-methyl-3-(methylsulfonamido)-1H-indazol-7-yl)pyridin-2-yl)-2-(3,5-difluorophenyl)ethyl)-2-((3bS,4aR)-5,5-difluoro-3-(trifluoromethyl)-3b,4,4a,5-tetrahydro-1H-cyclopropa[3,4]cyclopenta[1,2-c]pyrazol-1-yl)acetamide]
- inhibition at 3 µM (HIV-IIIb): 93%
- CC50 at 5 days [1]: 23.9 µM

Compound: CN(CCO)c1ccc(-c2ccc(Cl)c3c(NS(C)(=O)=O)nn(C)c23)c([C@H](Cc2cc(F)cc(F)c2)NC(=O)Cn2nc(C(F)(F)F)c3c2C(F)(F)[C@@H]2C[C@H]32)n1 [Compound 58, N—((S)-1-(3-(4-chloro-1-methyl-3-(methylsulfonamido)-1H-indazol-7-yl)-6-((2-hydroxyethyl)(methyl)amino)pyridin-2-yl)-2-(3,5-difluorophenyl)ethyl)-2-((3bS,4aR)-5,5-difluoro-3-(trifluoromethyl)-3b,4,4a,5-tetrahydro-1H-cyclopropa[3,4]cyclopenta[1,2-c]pyrazol-1-yl)acetamide]
- inhibition at 3 µM (HIV-IIIb): 86%
- CC50 at 5 days [1]: 12.8 µM

Compound: CC(=O)Nc1cnc([C@H](Cc2cc(F)cc(F)c2)NC(=O)Cn2nc(C(F)(F)F)c3c2C(F)(F)[C@@H]2C[C@H]32)c(-c2cccc3c(N(C(C)=O)S(C)(=O)=O)nn(C)c23)c1 [Compound 38B]
- inhibition at 3 µM (HIV-IIIb): 98%
- CC50 at 5 days [1]: 40.8 µM
